Laboratory results: ChEMBL document CHEMBL1128025, “Synthesis and evaluation of pyridyl analogs of L-735,524: Potent HIV-1 protease inhibitors” (Bioorg Med Chem Lett, 1994)

Tests used:
[1] = Concentration maxima after oral dosing in dogs; assay type: ADME, organism-based, Canis lupus familiaris; set-up: route oral; conditions: dog, in vivo
[2] = tested on: Human immunodeficiency virus; test: Compound was tested for cellulr inhibition of HIV was determined; assay type: functional; conditions: Human immunodeficiency virus 1
[3] = molecular target: Human immunodeficiency virus type 1 protease (Human immunodeficiency virus 1, UniProt Q72874); test: Inhibition of Human Immunodeficiency virus-1 protease
[4] = tested on: Human immunodeficiency virus; test: Compound was tested for cellulr inhibition of HIV was determined; Range is 6-12; assay type: functional; conditions: Human immunodeficiency virus 1
[5] = tested on: Human immunodeficiency virus; test: Compound was tested for cellulr inhibition of HIV was determined; Range is 12-25; assay type: functional; conditions: Human immunodeficiency virus 1
[6] = tested on: Human immunodeficiency virus; test: Compound was tested for cellulr inhibition of HIV was determined; Range is 25-50; assay type: functional; conditions: Human immunodeficiency virus 1

SMILES	Cmax [1]	IC95 [2]	IC50 [3]	IC95 [4]	IC95 [5]	IC95 [6]
CC(C)(C)NC(=O)[C@@H]1CN(Cc2cccnc2)CCN1C[C@@H](O)C[C@@H](Cc1ccncc1)C(=O)N[C@H]1c2ccccc2C[C@H]1O	414 nM	> 200 nM	1.7 nM	–	–	–
CC(C)(C)NC(=O)[C@@H]1CN(Cc2cc3ccsc3s2)CCN1C[C@@H](O)C[C@@H](Cc1cccnc1)C(=O)N[C@H]1c2ccccc2C[C@H]1O	7290 nM	–	0.12 nM	12 nM	–	–
CC(C)(C)NC(=O)[C@@H]1CN(Cc2cc(Br)cs2)CCN1C[C@@H](O)C[C@@H](Cc1ccncc1)C(=O)N[C@H]1c2ccccc2C[C@H]1O	2200 nM	–	0.11 nM	–	25 nM	–
CC(C)(C)NC(=O)[C@@H]1CN(Cc2cc3sccc3s2)CCN1C[C@@H](O)C[C@@H](Cc1cccnc1)C(=O)N[C@H]1c2ccccc2C[C@H]1O	3290 nM	–	0.09 nM	12 nM	–	–
CC(C)(C)NC(=O)[C@@H]1CN(Cc2cccnc2)CCN1C[C@@H](O)C[C@@H](Cc1ccccc1)C(=O)N[C@H]1c2ccccc2C[C@H]1O [INDINAVIR]	–	50 nM	–	–	–	–
CC(C)(C)NC(=O)[C@@H]1CN(Cc2cc3sccc3s2)CCN1C[C@@H](O)C[C@@H](Cc1ccncc1)C(=O)N[C@H]1c2ccccc2C[C@H]1O	1590 nM	–	0.05 nM	12 nM	–	–
CC(C)(C)NC(=O)[C@@H]1CN(Cc2c(F)cccc2F)CCN1C[C@@H](O)C[C@@H](Cc1ccncc1)C(=O)N[C@H]1c2ccccc2C[C@H]1O	8060 nM	–	0.48 nM	–	–	50 nM
CC(C)(C)NC(=O)[C@@H]1CN(S(=O)(=O)c2cccc3cccnc23)CCN1C[C@@H](O)C[C@@H](Cc1cccnc1)C(=O)N[C@H]1c2ccccc2C[C@H]1O	–	> 200 nM	0.03 nM	–	–	–
CC(C)(C)NC(=O)[C@@H]1CN(Cc2cccnc2)CCN1C[C@@H](O)C[C@@H](Cc1cccnc1)C(=O)N[C@H]1c2ccccc2C[C@H]1O	–	> 200 nM	1.7 nM	–	–	–
CC(C)(C)NC(=O)[C@@H]1CN(Cc2cc(Br)cs2)CCN1C[C@@H](O)C[C@@H](Cc1cccnc1)C(=O)N[C@H]1c2ccccc2C[C@H]1O	633 nM	25 nM	0.03 nM	–	–	–
CC(C)(C)NC(=O)[C@@H]1CN(S(=O)(=O)c2cccc3cccnc23)CCN1C[C@@H](O)C[C@@H](Cc1ccncc1)C(=O)N[C@H]1c2ccccc2C[C@H]1O	–	200 nM	0.015 nM	–	–	–
CC(C)(C)NC(=O)[C@@H]1CN(Cc2cc3ccsc3s2)CCN1C[C@@H](O)C[C@@H](Cc1ccncc1)C(=O)N[C@H]1c2ccccc2C[C@H]1O	1730 nM	–	0.06 nM	12 nM	–	–
CC(C)(C)NC(=O)[C@@H]1CN(Cc2c(F)cccc2F)CCN1C[C@@H](O)C[C@@H](Cc1cccnc1)C(=O)N[C@H]1c2ccccc2C[C@H]1O	1010 nM	12.2 nM	0.14 nM	–	–	–
